In patent publication US20250163104A1, “MACROCYCLIC IMMUNOMODULATORS” (priority 2021, published 2025):
pIC50: −log10 of the molar value. Where a SMILES comes first, the peptide text is derived from it. Bridges are numbered along the chain shown (N, C = ends). [ ]: non-standard residue; d: D form. The star is where a group is joined. ξ: configuration not given here. Phe(3-CF3) = N[C@@H](Cc1cccc(C(F)(F)F)c1)C(=O)O; Ala(morpholin-4-yl) = N[C@@H](CN1CCOCC1)C(=O)O; Phe(4-CONH2) = NC(=O)c1ccc(C[C@H](N)C(=O)O)cc1; Phe(4-COOH) = N[C@@H](Cc1ccc(C(=O)O)cc1)C(=O)O; Bip = N[C@@H](Cc1ccc(-c2ccccc2)cc1)C(=O)O; Phe(4-NH2) = Nc1ccc(C[C@H](N)C(=O)O)cc1; Phe(3-Me) = Cc1cccc(C[C@H](N)C(=O)O)c1; Val(3-OH) = CC(C)(O)[C@H](N)C(=O)O; hPhe = N[C@@H](CCc1ccccc1)C(=O)O; 3Pal = N[C@@H](Cc1cccnc1)C(=O)O; 4Pal = N[C@@H](Cc1ccncc1)C(=O)O; Cha = N[C@@H](CC1CCCCC1)C(=O)O; Cit = NC(=O)NCCC[C@H](N)C(=O)O; Ile(3ξ) = CCC(C)[C@H](N)C(=O)O; Carboxymethyl = O=C(O)C*; Nle = CCCC[C@H](N)C(=O)O; Orn = NCCC[C@H](N)C(=O)O; Dab = NCC[C@H](N)C(=O)O; Dap = NC[C@H](N)C(=O)O; Propargyl = C#CC*

Molecular target: T1, human PD-1 / PD-L1-Ig binding on Jurkat cell line over-expressing human PD-1 (Jurkat-PD-1) (Homo sapiens, UniProt Q15116)
T1 construct: expressed in transfected cells; host or cells: Jurkat
T1 sequence (Q15116 25-288): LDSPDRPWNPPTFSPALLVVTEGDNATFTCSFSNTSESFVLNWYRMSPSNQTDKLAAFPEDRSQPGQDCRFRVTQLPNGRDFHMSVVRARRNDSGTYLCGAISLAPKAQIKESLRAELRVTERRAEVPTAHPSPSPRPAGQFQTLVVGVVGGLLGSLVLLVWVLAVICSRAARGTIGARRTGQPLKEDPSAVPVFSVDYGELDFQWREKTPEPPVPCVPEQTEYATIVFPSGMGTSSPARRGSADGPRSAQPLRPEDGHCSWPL
Assay: Jurkat-PD-1 Cell Binding High-Content Screening Assay (CBA)
Assay type: cell-based
Settings: Jurkat-PD-1 cells, PE-labeled PD-L1-Ig 20 nM final; read-out: Jurkat HPD1_PDL1 IC50
Outline: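 Binding of fluorescent PD-L1-Ig (phycoerythrin linked via the Ig tag, 20 nM final) to PD-1-overexpressing Jurkat cells was imaged after a 2 h, 37° C compound pretreatment and 1 hour ligand incubation.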

pIC50	Structure (SMILES)
8.17	CC(C)C[C@H]1NC(=O)[C@H](CCCN)NC(=O)[C@H](CCCNC(N)=O)NC(=O)[C@H](Cc2ccc(-c3ccccc3)cc2)NC(=O)[C@H](C(C)C)NC(=O)[C@H](Cc2c[nH]c3ccccc23)NC(=O)[C@H](CC(=O)O)NC(=O)[C@H](Cc2ccc(N)cc2)NC(=O)[C@H](CN)NC(=O)CSC[C@@H](C(=O)N[C@@H](C)C(N)=O)NC(=O)[C@H]([C@@H](C)O)NC(=O)[C@H](C(C)C)NC(=O)[C@H](CC2CCCCC2)NC(=O)[C@H](CCN)NC1=O [Compound 2105] ({CH2CO}-[Dap][Phe(4-NH2)]DWV[Bip][Cit][Orn][dL][Dab][Cha]VTCA-NH2; thioether N-14)
7.92	CCC(C)[C@@H]1NC(=O)[C@H](Cc2ccc(-c3ccccc3)cc2)NC(=O)[C@H](C(C)C)NC(=O)[C@H](Cc2cccc(C)c2)NC(=O)[C@H](CC(=O)O)NC(=O)[C@H](Cc2cccnc2)NC(=O)[C@H](CC(N)=O)NC(=O)CSC[C@@H](C(=O)N[C@@H](C)C(N)=O)NC(=O)[C@H]([C@@H](C)O)NC(=O)[C@H](C(C)C)NC(=O)[C@H](CC2CCCCC2)NC(=O)[C@H](CCN)NC(=O)[C@@H](CC(C)C)NC(=O)[C@H](CCCN)NC1=O (stereo partly drawn) [Compound 2233] ({CH2CO}-N[3Pal]D[Phe(3-Me)]V[Bip][Ile(3ξ)][Orn][dL][Dab][Cha]VTCA-NH2; thioether N-14)
8.66	CC(C)C[C@H]1NC(=O)[C@H](CCCN)NC(=O)[C@H](Cc2ccc(C(=O)O)cc2)NC(=O)[C@H](Cc2ccc(-c3ccccc3)cc2)NC(=O)[C@H](Cc2ccc(N)cc2)NC(=O)[C@H](Cc2cccc(C(F)(F)F)c2)NC(=O)[C@H](CC(=O)O)NC(=O)[C@H](Cc2ccc(C(=O)O)cc2)NC(=O)[C@H](CN2CCOCC2)NC(=O)CSC[C@@H](C(=O)N[C@@H](CCN)C(N)=O)NC(=O)[C@H](CCC(=O)O)NC(=O)[C@H](C(C)C)NC(=O)[C@H](CC2CCCCC2)NC(=O)[C@H](CCN)NC1=O [Example 2743] ({CH2CO}-[Ala(morpholin-4-yl)][Phe(4-COOH)]D[Phe(3-CF3)][Phe(4-NH2)][Bip][Phe(4-COOH)][Orn][dL][Dab][Cha]VEC[Dab]-NH2; thioether N-14)
7.68	CC(C)C[C@H]1NC(=O)[C@H](CCCN)NC(=O)[C@H](CCCNC(N)=O)NC(=O)[C@H](Cc2ccc(-c3ccccc3)cc2)NC(=O)[C@H](C(C)C)NC(=O)[C@H](Cc2c[nH]c3ccccc23)NC(=O)[C@H](CC(=O)O)NC(=O)[C@H](Cc2ccc(O)cc2)NC(=O)[C@H](Cc2ccccc2)NC(=O)CSC[C@@H](C(=O)N[C@@H](C)C(N)=O)NC(=O)[C@H]([C@@H](C)O)NC(=O)[C@H](C(C)C)NC(=O)[C@H](CC2CCCCC2)NC(=O)[C@H](CCCNC(=N)N)NC1=O [Compound 1156] ({CH2CO}-FYDWV[Bip][Cit][Orn][dL]R[Cha]VTCA-NH2; thioether N-14)
6.67	CC(C)C[C@H]1NC(=O)[C@H](CCCN)NC(=O)[C@H](CCC(=O)O)NC(=O)[C@H](Cc2ccc(-c3ccccc3)cc2)NC(=O)[C@H](C(C)C)NC(=O)[C@H](Cc2c[nH]c3ccccc23)NC(=O)[C@H](CC(=O)O)NC(=O)[C@H](Cc2ccc(OCC(=O)O)cc2)NC(=O)[C@H](CN)NC(=O)CSC[C@@H](C(=O)N[C@@H](C)C(N)=O)NC(=O)[C@H]([C@@H](C)O)NC(=O)[C@H](C(C)C)NC(=O)[C@H](Cc2ccc(O)cc2)NC(=O)[C@H](CCN)NC1=O [Compound 1686] ({CH2CO}-[Dap]Y(Carboxymethyl)DWV[Bip]E[Orn][dL][Dab]YVTCA-NH2; thioether N-14)
8.21	Cc1cccc(C[C@@H]2NC(=O)[C@H](CC(=O)O)NC(=O)[C@H](Cc3ccc(OCC(=O)O)cc3)NC(=O)[C@H](Cc3ccncc3)NC(=O)CSC[C@@H](C(=O)NCC(N)=O)NC(=O)[C@H](CO)NC(=O)[C@H](C(C)C)NC(=O)[C@H](CC(C)C)NC(=O)[C@H](CCN)NC(=O)[C@@H](CC(C)C)NC(=O)[C@H](CCCN)NC(=O)[C@H](C(C)C)NC(=O)[C@H](Cc3ccc(-c4ccccc4)cc3)NC(=O)[C@H](CC(C)C)NC2=O)c1 [Compound 1263] ({CH2CO}-[4Pal]Y(Carboxymethyl)D[Phe(3-Me)]L[Bip]V[Orn][dL][Dab]LVSCG-NH2; thioether N-14)
8.10	CC(C)C[C@H]1NC(=O)[C@H](CCCN)NC(=O)[C@H](CCCNC(N)=O)NC(=O)[C@H](Cc2ccc(-c3ccccc3)cc2)NC(=O)[C@H](C(C)C)NC(=O)[C@H](Cc2c[nH]c3ccccc23)NC(=O)[C@H](CC(=O)O)NC(=O)[C@H](CCc2ccccc2)NC(=O)[C@H](CN)NC(=O)CSC[C@@H](C(=O)N[C@@H](C)C(N)=O)NC(=O)[C@H]([C@@H](C)O)NC(=O)[C@H](C(C)C)NC(=O)[C@H](CC2CCCCC2)NC(=O)[C@H](CCN)NC1=O [Compound 2126] ({CH2CO}-[Dap][hPhe]DWV[Bip][Cit][Orn][dL][Dab][Cha]VTCA-NH2; thioether N-14)
8.33	COc1ccc(C[C@@H]2NC(=O)CSC[C@@H](C(=O)N[C@@H](CCN)C(N)=O)NC(=O)[C@H](CCC(=O)O)NC(=O)[C@H](C(C)(C)O)NC(=O)[C@H](CC3CCCCC3)NC(=O)[C@H](CCN)NC(=O)[C@@H](CC(C)C)NC(=O)[C@H](CCCN)NC(=O)[C@H](Cc3ccc(OCC(=O)O)cc3)NC(=O)[C@H](Cc3ccc(-c4ccccc4)cc3)NC(=O)[C@H](Cc3ccc(OCC(=O)O)cc3)NC(=O)[C@H](Cc3cccc(C)c3)NC(=O)[C@H](CC(=O)O)NC(=O)[C@H](Cc3ccc(OCC(=O)O)cc3)NC2=O)cc1 [Compound 2692] ({CH2CO}-Y(Me)Y(Carboxymethyl)D[Phe(3-Me)]Y(Carboxymethyl)[Bip]Y(Carboxymethyl)[Orn][dL][Dab][Cha][Val(3-OH)]EC[Dab]-NH2; thioether N-14)
8.05	CC(C)C[C@H]1NC(=O)[C@H](CCCN)NC(=O)[C@H](CCCNC(N)=O)NC(=O)[C@H](Cc2ccc(-c3ccccc3)cc2)NC(=O)[C@H](C(C)C)NC(=O)[C@H](Cc2c[nH]c3ccccc23)NC(=O)[C@H](CC(=O)O)NC(=O)[C@H](Cc2ccc(O)cc2)NC(=O)[C@H](CN)NC(=O)CSC[C@@H](C(=O)N[C@@H](C)C(N)=O)NC(=O)[C@H]([C@@H](C)O)NC(=O)[C@H](C(C)C)NC(=O)[C@H](CC2CCCCC2)NC(=O)[C@H](CCCNC(=N)N)NC1=O [Compound 1153] ({CH2CO}-[Dap]YDWV[Bip][Cit][Orn][dL]R[Cha]VTCA-NH2; thioether N-14)
8.44	C#CCOc1ccc(C[C@@H]2NC(=O)CSC[C@@H](C(=O)N[C@@H](CCN)C(N)=O)NC(=O)[C@H](CCC(=O)O)NC(=O)[C@H](C(C)C)NC(=O)[C@H](CC3CCCCC3)NC(=O)[C@H](CCN)NC(=O)[C@@H](CC(C)C)NC(=O)[C@H](CCCN)NC(=O)[C@H](Cc3ccc(OCC(=O)O)cc3)NC(=O)[C@H](Cc3ccc(-c4ccccc4)cc3)NC(=O)[C@H](Cc3ccc(OCC(=O)O)cc3)NC(=O)[C@H](Cc3cccc(C)c3)NC(=O)[C@H](CC(=O)O)NC(=O)[C@H](Cc3ccc(OCC(=O)O)cc3)NC2=O)cc1 [Compound 1817] ({CH2CO}-Y(Propargyl)Y(Carboxymethyl)D[Phe(3-Me)]Y(Carboxymethyl)[Bip]Y(Carboxymethyl)[Orn][dL][Dab][Cha]VEC[Dab]-NH2; thioether N-14)
7.52	CC(C)[C@@H]1NC(=O)[C@H](Cc2c[nH]c3ccccc23)NC(=O)[C@H](CC(=O)O)NC(=O)[C@H](Cc2ccc(C(=O)O)cc2)NC(=O)[C@H](Cc2ccc(OCC(=O)O)cc2)NC(=O)CSC[C@@H](C(=O)N[C@@H](C)C(N)=O)NC(=O)[C@H]([C@@H](C)O)NC(=O)[C@H](C(C)C)NC(=O)[C@H](CC2CCCCC2)NC(=O)[C@H](CCN)NC(=O)[C@@H](Cc2ccccc2)NC(=O)[C@H](CCCN)NC(=O)[C@H](CCC(=O)O)NC(=O)[C@H](Cc2ccc(-c3ccccc3)cc2)NC1=O [Compound 1438] ({CH2CO}-Y(Carboxymethyl)[Phe(4-COOH)]DWV[Bip]E[Orn][dF][Dab][Cha]VTCA-NH2; thioether N-14)
8.34	Cc1cccc(C[C@@H]2NC(=O)[C@H](CC(=O)O)NC(=O)[C@H](Cc3ccc(OCC(=O)O)cc3)NC(=O)[C@H](Cc3ccncc3)NC(=O)CSC[C@@H](C(=O)N[C@@H](CCN)C(N)=O)NC(=O)[C@H](CO)NC(=O)[C@H](C(C)(C)O)NC(=O)[C@H](CC3CCCCC3)NC(=O)[C@H](CCN)NC(=O)[C@@H](CC(C)C)NC(=O)[C@H](CCCN)NC(=O)[C@H](Cc3ccc(O)cc3)NC(=O)[C@H](Cc3ccc(-c4ccccc4)cc3)NC(=O)[C@H](Cc3ccc(C(N)=O)cc3)NC2=O)c1 [Compound 2623] ({CH2CO}-[4Pal]Y(Carboxymethyl)D[Phe(3-Me)][Phe(4-CONH2)][Bip]Y[Orn][dL][Dab][Cha][Val(3-OH)]SC[Dab]-NH2; thioether N-14)
7.15	CCCC[C@@H]1NC(=O)[C@H](CCCNC(=N)N)NC(=O)[C@@H](CC(C)C)NC(=O)[C@H](CCCN)NC(=O)[C@H]([C@@H](C)CC)NC(=O)[C@H](Cc2ccc(-c3ccccc3)cc2)NC(=O)[C@H](C(C)C)NC(=O)[C@H](Cc2c[nH]c3ccccc23)NC(=O)[C@H](CC(=O)O)NC(=O)[C@H](Cc2ccc(O)cc2)NC(=O)[C@H](CC(N)=O)NC(=O)CSC[C@@H](C(=O)N[C@@H](C)C(N)=O)NC(=O)[C@H]([C@@H](C)O)NC(=O)[C@H](C(C)C)NC1=O [Compound 1151] ({CH2CO}-NYDWV[Bip]I[Orn][dL]R[Nle]VTCA-NH2; thioether N-14)
7.93	Cc1cccc(C[C@@H]2NC(=O)[C@H](CC(=O)O)NC(=O)[C@H](Cc3ccc(C(=O)O)cc3)NC(=O)[C@H](Cc3ccncc3)NC(=O)CSC[C@@H](C(=O)N[C@@H](CO)C(N)=O)NC(=O)[C@H](CCC(=O)O)NC(=O)[C@H](C(C)C)NC(=O)[C@H](CC3CCCCC3)NC(=O)[C@H](CCN)NC(=O)[C@@H](CC(C)C)NC(=O)[C@H](CCCN)NC(=O)[C@H](Cc3ccc(OCC(=O)O)cc3)NC(=O)[C@H](Cc3ccc(-c4ccccc4)cc3)NC(=O)[C@H](Cc3ccc(OCC(=O)O)cc3)NC2=O)c1 [Compound 2311] ({CH2CO}-[4Pal][Phe(4-COOH)]D[Phe(3-Me)]Y(Carboxymethyl)[Bip]Y(Carboxymethyl)[Orn][dL][Dab][Cha]VECS-NH2; thioether N-14)
